This is an account of results in EP0233031B1, “Methylthioribose analogues, their preparation and use as medicinal agents and biocides” (STATE OF OREGON BY AND THROUGH OREGON STATE BOARD OF HIGHER …, priority 1986, dated 1987).

Holding throughout (type): cell-based
Series [1] has as its system Candida albicans. As to the kind of experiment: Growth inhibition of Candida albicans in LB broth (optical density / visible growth). As to conditions: for OD550 24 hrs / OD550 7 days / OD550 at 24 Hrs: 10^4 cells; for OD550 at 24 Hrs: LB broth. As to the method: In the following examples, an MTR kinase-dependent microorganism is treated in vitro with compounds of this invention. In the following examples, LB is a growth medium (Luria-Bertani) containing, per liter, 10 grams Bacto-tryptone, 5 grams Bacto-yeast extract and 10 grams NaCl. OD₅₅₀ is a measure of the optical density of the suspension at the indicated time. Low optical density indicates a low cell concentration in the suspension and thus that compounds were effective to inhibit the growth of the microorganisms.

Series [2] has as its system mouse marrow. As to the kind of experiment: CFU-GM assay, toxicity toward mouse marrow. From the text:
In the following examples, human bone marrow and mouse marrow cells were subjected to ethylthioribose. In each case, a preparation of immature blood cells from bone marrow were conventionally stimulated to mature in a gel matrix. Immature human granulocytic precursor (CFU-GM) cells formed a colony in the matrix and the number of cells in the colony was counted. Such tests are believed to be a good measure of the toxicity of the subject compounds to humans.

For series [3], the system named is Plasmodium falciparum. In words: Plasmodium falciparum in vitro erythrocyte culture, Giemsa-stained thin smears. As to the method: • a. Procedure. Parasitized erythrocytes from a stock four-day-old culture at approximately 10% infection were mixed with washed clean erythrocytes to give a final parasitemia of approximately 1%. Using 1.2 cm plastic Petri dishes duplicate 1 ml cultures were initiated with drug dilutions in complete RPMI-1640, containing 0.1 ml of erythrocytes and 50 ug of gentamycin/ml. The cultures were supplemented with RPMI-1640 (25 mM HEPES), 0.24% sodium bicarbonate and 10% human serum (Type A⁻). All cultures were gassed with 90% nitrogen, 5% carbon dioxide and 5% oxygen prior to incubation at 37°C. Parasite growth was assessed by microscopic evaluation of Giemsa-stained thin-smears. • b. Results. [formula]

Series [4] deals with Ochromonas malhamensis (ATCC #11532). As to the kind of experiment: Toxicity to Ochromonas malhamensis culture (cell number by hemacytometer). As to conditions: Poterioochromonas malhamensis, ATCC11532; 48 hours of incubation; thioglycolate broth; 4x10^4 cells per ml; read-out: ID50 (the source's name). As to the method:
• a. Procedure. 2 ml cultures of O. malhamensis were set up at a cell density of 4x10⁴ per ml. The culture medium used was thioglycolate broth and incubation took place at ambient temperature near a south-facing window (these organisms are photosynthetic). ETR was added at the appropriate dilution at the beginning of the experiment. Cell number was determined using a hemacytometer. The data (shown below) were obtained after 48 hours of incubation. • b. Results. [formula]

Series [5] concerns Giardia lamblia (Portland 1 strain). As to the kind of experiment: Inhibition of Giardia lamblia culture (cell number by hemacytometer). As to the method: • a. Procedure. Giardia lamblia was cultured in Diamond's TP-S-1 medium supplemented with 10% heat-inactivated calf serum and antibiotics (penicillin and streptomycin). The antibiotics were added to prevent contamination by bacteria. Tube cultures containing 7 mls of medium were seeded with 5 x 10⁴ organisms per ml and incubated horizontally at 37°C for 48 hrs. ETR was added at the beginning of the experiment. Cell number was determined with the aid of a hemacytometer. • b. Results. [formula]

Series [6] has as its system Candida albicans. In words: Colony count of Candida albicans after incubation with ETR (cytocidal vs cytostatic). As to conditions: for Total # Organisms: colonies x dilution factor 200; for Colonies: 10^3 orgs, 100 l of 1:10 dilution plated. From the text:
In this example, samples containing a known number of microorganisms were colonized without ETR and in the presence of ETR. In the instances where growth occurred, one colony formed for each microorganism.

As for `OC1O[C@H](CCl)[C@@H](O)[C@H]1O` (some centres unmarked) [5-Chloro-5-Deoxyribose, 5-deoxy-5-chlororibose], the “OD550 24 hrs” value in series [1] (0.2 of 10mM stock + LB 1.8), in series [1] (0.4 of 10mM stock + LB 1.6) and in series [1] (0.8 of 10mM stock + LB 1.2) was 0.0 in each case. The “OD550 7 days” value in series [1] (0.2 of 10mM stock + LB 1.8), in series [1] (0.4 of 10mM stock + LB 1.6) and in series [1] (0.8 of 10mM stock + LB 1.2) was 0.0 throughout. For the same molecule, in series [1] (conclusion of Example 20), the “killing of Candida albicans” value was “effective to kill”.
On to `CCSC[C@H]1OC(O)[C@H](O)[C@@H]1O` (some centres unmarked) [ETR, 5-ethylthio-5-deoxyribose], for which the CFU-GM in series [2] (ETR 100 (1:1)) is reported as 34 --; in series [2] (ETR 100 (1:1k), duplicate counts), 36,37; in series [2] (ETR 100 (1:2), duplicate counts), 37,33; in series [2] (ETR 100 (1:4), duplicate counts) it was 32,34; in series [2] (ETR 100 (1:10), duplicate counts) it was 36,34; in series [2] (ETR 100 (1:10k), duplicate counts), 35,32. For the same molecule, the CFU-GM in series [2] (ETR 100 (1:20k), duplicate counts) is reported as 32,34; in series [2] (ETR 100 (1:40), duplicate counts), 33,35; in series [2] (ETR 100 (1:50), duplicate counts), 37,36; in series [2] (ETR 100 (1:100)) it was 39 --; in series [2] (ETR 100 (1:100k), duplicate counts), 33,35; in series [2] (ETR 100 (stock), duplicate counts), 35,36. The “OD550 at 24 Hrs” value in series [1] (ETR 0.092mM) was 0.409; in series [1] (ETR 0.23mM) it was 0.355; in series [1] (ETR 0.46mM) it was 0.357; in series [1] (ETR 0.9mM) it was 0.120; in series [1] (ETR 2.3mM) it was 0.0; in series [1] (ETR 4.6mM), 0.0. The “OD550 at 24 Hrs” value in series [1] (ETR 9.2mM) is 0.0. Moreover, the “growth of Candida albicans” value in series [1] (conclusion of Examples 17 and 18) was “clearly inhibits the growth”. In addition, the parasitemia result in series [3] (24 hours, 1mM ETR) is listed as “remained at or below the level of the initial inoculum”; in series [3] (24 hours, 5mM ETR) it was “remained at or below the level of the initial inoculum”; in series [3] (48 hours, 1 mM ETR (lowest concentration tested), initial seeding <1.0%) it was “less than 0.1%”. The parasite growth result in series [3] (24 hours, 1 mM ETR (lowest concentration tested)) was “a small increase in growth was noted but the parasites appeared abnormal”. The infection entry in series [3] (72 hours, 1 mM ETR (lowest concentration tested)) was “less than 1 parasite per 10,000 red cells”. Also, the culture infection result in series [3] (72 hours, all drug-treated cultures) is recorded as “completely negative”. In series [3] (after 5 days (the last 3 days without drug)), the reappearance of parasitemia result was “did not reappear”. Further, the “inhibition of P. falciparum in vitro” value in series [3] (overall conclusion) is recorded as “inhibitory”. For the same molecule, the IC50 was 20 µM in series [4] and around 450 µM in series [5] (Giardia duodenalis, 48 hrs at 37°C, 5 x 10^4 organisms per ml, read-out: ID50 (the source's name)). The “cell death and lack of "swimming"” value in series [5] (concentrations ranging from 0.62mM to 5mM) is “significant cell death and lack of "swimming"”. In addition, the “Total # Organisms” value is 400 in series [6] (3 hrs (+ETR) 4mM) and 0 in series [6] (5 hrs (w/ETR) 4mM). For the same molecule, the Colonies in series [6] (3 hrs incubation with ETR 0.5ml (4mM)) was 2; in series [6] (5 hrs incubation with ETR 1.5ml (4mM)), 0. The “cytocidal as opposed to cytostatic” value in series [6] (conclusion of Example 19) was “cytocidal”. For the same molecule, the “colonies formed in the presence of ETR” value in series [6] (summary statement of Example 19) is “less than 1,000 colonies”.
